From patent publication US20140171358A1, “ANTIMICROBIAL COMPOSITIONS COMPRISING DGLA AND NEOMYCIN SULFATE AND METHODS OF USE THEREOF” (Dignity Sciences Limited, priority 2012, published 2014)
Where two headings read alike, the source gives them in different places. Each block holds one compound with its values, some of them ahead of it.

Legend:
Format in all cases: cell-based
P. acnes = assay: agar dilution method: growth index and MIC on P. acnes (single compounds and combinations); set-up: key to Growth Index Plate 1 / Growth Index Plate 2 / Growth Index Plate 3 / Growth Index Avg: +++: confluent growth (comparable to control); ++: less confluent growth; +: marked reduction in growth to multiple tiny, single colonies; −: no growth present; details: for MIC: Cutibacterium acnes
Protocol: Several compounds including fatty acids such as DGLA, 15-OHEPA, and 15-HETrE were tested to determine their capacity to inhibit the growth of P. acnes. In an exemplary method, an agar dilution method was used to determine the minimum inhibitory concentration (MIC) of each tested compound. Briefly, the agar dilution method involved preparing a series of concentrations of each compound (e.g., nicotinamide, benzoyl peroxide, adapalene, metronidazole, DGLA, 15-OHEPA, and 15-HETrE) in a Reinforced Clostridial Agar (RCA) media that facilitates growth of P. acnes under anaerobic conditions. An inoculum of P. acnes was prepared by incubation of P. acnes for approximately seven days at 35-37° C. to achieve a ≧1.0 OD600 inoculum of P. acnes in RCM broth. A portion of this inoculum was then added to the surface of each plate as a 10 μL spot and incubated at 35-37° C. for 72 hours or more. Growth of P. acnes was then observed and compared to control plates in which no compound has been added, and positive inhibition plates prepared with erythromycin. […] The growth of P. acnes in the presence of nicotinamide, benzoyl peroxide, adapalene, metronidazole, DGLA, 15-OHEPA, and 15-HETrE was determined with varying concentrations of the compound (see, Table 2). Next, the MIC was determined as the concentration at which a marked reduction (+) occurs in the appearance of growth on the test plate (as per Clinical and Laboratory Standards Institute M11-A7). The compounds tested singly in Example 1 were tested in combination with one another to determine the capacity of the combination to inhibit the growth of P. acnes. In an exemplary method, the MIC was determined for each of the combination as described in Example 1. Briefly, test combinations included DGLA with nicotinamide, benzoyl peroxide, adapalene, or metronidazole; 15-HETrE with nicotinamide, benzoyl peroxide, adapalene, or metronidazole; and 15-OHEPA with nicotinamide, benzoyl peroxide, adapalene, or metronidazole. The tables below show the growth of P. acnes in the presence of 0.4 or 1.0 mg/mL DGLA with varying concentrations of nicotinamide, benzoyl peroxide, adapalene, or metronidazole (Table 3); the growth of P. acnes in the presence of 0.01 or 0.05 mg/mL 15-HETrE with varying concentrations of nicotinamide, benzoyl peroxide, adapalene, or metronidazole (Table 5); and the growth of P. acnes in the presence of 0.5 or 0.1 mg/mL 15-OHEPA with varying concentrations of nicotinamide, benzoyl peroxide, adapalene, or metronidazole (Table 7).

A. brasiliensis = assay: paper disc corrected zone of inhibition (CZOI) on Mueller Hinton agar
Protocol: (§1) The compounds tested in Example 1 were tested to determine their capacity to inhibit the growth of a variety of Gram-negative bacteria, Gram-positive bactgeria, fungi and yeast. In an exemplary method, Mueller Hinton agar plates were streaked with 500 μL of a 10^5 colony-forming units/mL culture and allowed to dry for at least one minute. A sterile paper disc (6 mm diameter) was then placed in the middle of each plate using sterile forceps. Twenty microliters of a solution of a known concentration of a test compound in filter-sterilized 95% ethanol were pipetted onto each test plate. Two streaked plates served as positive inhibitory controls and contained 6 mm sterile paper discs with standard tetracycline solutions. Two additional plates served as negative inhibition controls and each contained 6 mm sterile paper discs with 20 μL of filter-sterilized 95% ethanol. Two more plates served as positive growth controls and contained no paper disc or added antibacterial agent. The plates were incubated at 32.5±2° C. for 24±4 hours, after which the corrected zone of inhibition (“CZOI”) was determined as follows: For each plate, the length Y2 and width X2 of the test sample (paper disc) and length Y1 and width X1 of the clear zone were measured (FIG. 1). The CZOI was calculated from these values as shown by the equation below: [formula]

K. pneumoniae = assay: as above
Protocol: as §1

S. aureus = assay: as above
Protocol: as §1

P. aeroginosa = assay: as above
Protocol: as §1

C. striatum = assay: as above
Protocol: as §1

C. albicans = assay: as above
Protocol: as §1

S. epidermidis = assay: as above
Protocol: as §1

E. coli = assay: as above
Protocol: as §1

E. faecalis = assay: as above
Protocol: as §1

SMILES: CCCCCC(O)/C=C/C=C\C/C=C\CCCCCCC(=O)O (centres unmarked) [15-HETrE, 15-Hydroxy-eicosa-8(Z),11(Z),13 (E)-trienoic acid]
- effect on growth of P. acnes on its own (P. acnes; 0.01 mg/ml): no effect on its own
- Growth Index Avg (P. acnes; varied compound 0.00001 mg/mL): +++
- Growth Index Plate 1 (P. acnes; varied compound 0.00001 mg/mL): +++
- Growth Index Plate 2 (P. acnes; varied compound 0.00001 mg/mL): +++
- Growth Index Plate 3 (P. acnes; varied compound 0.00001 mg/mL): +++
- Growth Index Avg (P. acnes; varied compound 0.0001 mg/mL): +++
- Growth Index Plate 1 (P. acnes; varied compound 0.0001 mg/mL): +++
- Growth Index Plate 2 (P. acnes; varied compound 0.0001 mg/mL): +++
- Growth Index Plate 3 (P. acnes; varied compound 0.0001 mg/mL): +++
- Growth Index Avg (P. acnes; varied compound 0.001 mg/mL): +++
- Growth Index Plate 1 (P. acnes; varied compound 0.001 mg/mL): +++
- Growth Index Plate 2 (P. acnes; varied compound 0.001 mg/mL): +++
- Growth Index Plate 3 (P. acnes; varied compound 0.001 mg/mL): +++
- Growth Index Avg (P. acnes; varied compound 0.01 mg/mL): ++
- Growth Index Plate 1 (P. acnes; varied compound 0.01 mg/mL): ++
- Growth Index Plate 2 (P. acnes; varied compound 0.01 mg/mL): +++
- Growth Index Plate 3 (P. acnes; varied compound 0.01 mg/mL): ++
- Growth Index Avg (P. acnes; varied compound 0.05 mg/mL): −
- Growth Index Plate 1 (P. acnes; varied compound 0.05 mg/mL): −
- Growth Index Plate 2 (P. acnes; varied compound 0.05 mg/mL): −
- Growth Index Plate 3 (P. acnes; varied compound 0.05 mg/mL): −
- Average CZOI (A. brasiliensis; 0.005 mg/mL): 1.75 mm
- Average CZOI (A. brasiliensis; 0.01 mg/mL): 1 mm
- Average CZOI (A. brasiliensis; 0.05 mg/mL): 1.25 mm
- Average CZOI (A. brasiliensis; 0.1 mg/mL): 2.25 mm
- Average CZOI (A. brasiliensis; 0.5 mg/mL): 3 mm
- Lowest Concentration With Observed Inhibition (A. brasiliensis; A. brasiliensis): 0.005 mg/mL
- Most Effective Concentration Observed (A. brasiliensis; A. brasiliensis): 0.5 mg/mL
- Average CZOI (K. pneumoniae; 0.005 mg/mL): 2.5 mm
- Average CZOI (K. pneumoniae; 0.01 mg/mL): 2 mm
- Average CZOI (K. pneumoniae; 0.05 mg/mL): 1 mm
- Average CZOI (K. pneumoniae; 0.1 mg/mL): 1.5 mm
- Average CZOI (K. pneumoniae; 0.5 mg/mL): 1 mm
- Lowest Concentration With Observed Inhibition (K. pneumoniae; K. pneumoniae): 0.005 mg/mL
- Most Effective Concentration Observed (K. pneumoniae; K. pneumoniae): 0.005 mg/mL
- Average CZOI (S. aureus; 0.005 mg/mL): 2 mm
- Average CZOI (S. aureus; 0.01 mg/mL): 2.5 mm
- Average CZOI (S. aureus; 0.05 mg/mL): 0.75 mm
- Average CZOI (S. aureus; 0.1 mg/mL): 1.75 mm
- Average CZOI (S. aureus; 0.5 mg/mL): 1 mm
- Lowest Concentration With Observed Inhibition (S. aureus; S. aureus): 0.005 mg/mL
- Most Effective Concentration Observed (S. aureus; S. aureus): 0.01 mg/mL
- Average CZOI (P. aeroginosa; 0.005 mg/mL): 1.5 mm
- Average CZOI (P. aeroginosa; 0.01 mg/mL): 1.5 mm
- Average CZOI (P. aeroginosa; 0.05 mg/mL): 1 mm
- Average CZOI (P. aeroginosa; 0.1 mg/mL): 1.5 mm
- Average CZOI (P. aeroginosa; 0.5 mg/mL): 1 mm
- Lowest Concentration With Observed Inhibition (P. aeroginosa; P. aeroginosa): 0.005 mg/mL
- Most Effective Concentration Observed (P. aeroginosa; P. aeroginosa): 0.005 mg/mL
- Average CZOI (C. striatum; 0.005 mg/mL): 4 mm
- Average CZOI (C. striatum; 0.01 mg/mL): 3.25 mm
- Average CZOI (C. striatum; 0.05 mg/mL): 2.25 mm
- Average CZOI (C. striatum; 0.1 mg/mL): 3.25 mm
- Average CZOI (C. striatum; 0.5 mg/mL): 1.5 mm
- Lowest Concentration With Observed Inhibition (C. striatum; C. striatum): 0.005 mg/mL
- Most Effective Concentration Observed (C. striatum; C. striatum): 0.05 mg/mL
- Average CZOI (C. albicans; 0.005 mg/mL): 2 mm
- Average CZOI (C. albicans; 0.01 mg/mL): 1.75 mm
- Average CZOI (C. albicans; 0.05 mg/mL): 1.25 mm
- Average CZOI (C. albicans; 0.1 mg/mL): 1.5 mm
- Average CZOI (C. albicans; 0.5 mg/mL): 1.25 mm
- Lowest Concentration With Observed Inhibition (C. albicans; C. albicans): 0.005 mg/mL
- Most Effective Concentration Observed (C. albicans; C. albicans): 0.005 mg/mL
- Average CZOI (S. epidermidis; 0.005 mg/mL): 1.75 mm
- Average CZOI (S. epidermidis; 0.01 mg/mL): 3 mm
- Average CZOI (S. epidermidis; 0.05 mg/mL): 1 mm
- Average CZOI (S. epidermidis; 0.1 mg/mL): 1 mm
- Average CZOI (S. epidermidis; 0.5 mg/mL): 1.75 mm
- Lowest Concentration With Observed Inhibition (S. epidermidis; S. epidermidis): 0.005 mg/mL
- Most Effective Concentration Observed (S. epidermidis; S. epidermidis): 0.01 mg/mL
- Average CZOI (E. coli; 0.005 mg/mL): 1.5 mm
- Average CZOI (E. coli; 0.01 mg/mL): 2 mm
- Average CZOI (E. coli; 0.05 mg/mL): 1 mm
- Average CZOI (E. coli; 0.1 mg/mL): 1.25 mm
- Average CZOI (E. coli; 0.5 mg/mL): 1 mm
- Lowest Concentration With Observed Inhibition (E. coli; E. coli): 0.005 mg/mL
- Most Effective Concentration Observed (E. coli; E. coli): 0.01 mg/mL
- Average CZOI (E. faecalis; 0.005 mg/mL): 3.75 mm
- Average CZOI (E. faecalis; 0.01 mg/mL): 5.75 mm
- Average CZOI (E. faecalis; 0.05 mg/mL): 3.75 mm
- Average CZOI (E. faecalis; 0.1 mg/mL): 3.25 mm
- Average CZOI (E. faecalis; 0.5 mg/mL): 2.75 mm
- Lowest Concentration With Observed Inhibition (E. faecalis; E. faecalis): 0.005 mg/mL
- Most Effective Concentration Observed (E. faecalis; E. faecalis): 0.01 mg/mL

- MIC (P. acnes; read-out: MIC (mg/mL) with 0.01 mg/mL 15-HETrE spike): 0.6 to 0.7 mg/mL
- MIC (P. acnes; read-out: MIC (mg/mL) with 0.05 mg/mL 15-OHEPA spike): > 0.8 mg/mL
- MIC (P. acnes; with 0.05 mg/mL 15-HETrE (inhibitory concentration), read-out: MIC (mg/mL) with 0.05 mg/mL 15-HETrE spike): < 0.2 mg/mL
- MIC (P. acnes; with 0.1 mg/mL 15-OHEPA (inhibitory concentration), read-out: MIC (mg/mL) with 0.1 mg/mL 15-OHEPA spike): < 0.2 mg/mL
- MIC (P. acnes; with 0.4 mg/mL dGLA (Sigma), read-out: MIC (mg/mL) with 0.4 mg/mL dGLA spike): > 0.6 mg/mL
- MIC (P. acnes; with 1.0 mg/mL dGLA (Cayman), read-out: MIC (mg/mL) with 1.0 mg/mL dGLA spike): > 0.6 mg/mL
SMILES: COc1ccc(-c2ccc3cc(C(=O)O)ccc3c2)cc1C12CC3CC(CC(C3)C1)C2 [Adapalene]
- growth of P. Acnes with the combination compared with 15-OHEPA used alone (P. acnes; in combination with 15-OHEPA): did not reduce the growth of P. Acnes below that of 15 OHEPA used alone
- growth of P. Acnes with the combination compared with DGLA used alone (P. acnes; in combination with DGLA): did not reduce the growth of P. Acnes below that of DGLA used alone
